In patent US10544150B2, “NK-3 receptor selective antagonist compounds, pharmaceutical composition and methods for use in NK-3 receptors mediated disorders” (Ogeda SA, priority 2010, dated 2020):
pKi: −log10 of the molar value.

Experiments:
[1] = system: circulating levels of luteinizing hormone (LH); test: Castrated male rat model, circulating levels of luteinizing hormone (LH); type: in vivo; details: castrated male SD rats, single intravenous dose (156 and 144: 10 mg/kg; 71: 15 mg/kg; 114: 20 mg/kg), 60 min post dosing (156 also 120 min), vs. baseline
[2] = target: human NK-3 receptor (Homo sapiens (Human), UniProt P29371); test: 3H-SB222200 binding competition assay with human NK-3 receptor; details: 3H-SB222200 displacement, CHO cell membranes expressing human NK3 receptor; read-out: Ki range
human NK-3 receptor, sequence (P29371 whole entry): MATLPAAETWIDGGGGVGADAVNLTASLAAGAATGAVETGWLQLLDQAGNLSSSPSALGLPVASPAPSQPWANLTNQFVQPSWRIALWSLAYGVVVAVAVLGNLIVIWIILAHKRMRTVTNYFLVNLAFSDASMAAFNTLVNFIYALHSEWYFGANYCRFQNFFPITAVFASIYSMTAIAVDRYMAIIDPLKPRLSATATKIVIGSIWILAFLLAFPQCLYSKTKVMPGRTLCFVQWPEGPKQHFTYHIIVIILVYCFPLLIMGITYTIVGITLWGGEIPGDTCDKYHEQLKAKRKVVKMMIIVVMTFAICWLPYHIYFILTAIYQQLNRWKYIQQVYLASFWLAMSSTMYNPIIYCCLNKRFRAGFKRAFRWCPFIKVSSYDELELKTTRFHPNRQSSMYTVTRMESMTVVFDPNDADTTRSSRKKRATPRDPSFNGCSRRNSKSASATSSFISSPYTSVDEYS
In short: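 Radioligand displacement: 5 nM tritiated SB222200 competed by varying compound concentrations on recombinant CHO membranes bearing human NK3, buffer pH 7.4 with HEPES, NaCl, CaCl2, MgCl2, BSA and saponin. Filter-bound radioactivity quantified; calculated Ki given as ranges from +++ (<500 nM) to # (>5 μM).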

Row | Compound | pKi [2] | effect on LH serum levels [1]
1 | O=C(c1ccc(F)cc1)N1CCn2c(nnc2-c2cc(-c3ccccc3)n[nH]2)C1 [Compound 269, (4-fluorophenyl)(3-(3-phenyl-1H-pyrazol-5-yl)-5,6-dihydro-[1,2,4]triazolo[4,3-a]pyrazin-7(8H)-yl)methanone] | 6.00 to 6.30 | –
2 | CC1(C)CCN(c2nc(-c3nnc4n3CCN(C(=O)c3ccc(-c5cccs5)cc3)C4)cs2)CC1 [Compound 274, (3-(2-(4,4-dimethylpiperidin-1-yl)thiazol-4-yl)-5,6-dihydro-[1,2,4]triazolo[4,3-a]pyrazin-7(8H)-yl)(4-(thiophen-2-yl)phenyl)methanone] | 6.00 to 6.30 | –
3 | Cc1scnc1-c1nnc2n1CCN(C(=O)c1ccc(-c3cccs3)cc1)C2 [Compound 275, (3-(5-methylthiazol-4-yl)-5,6-dihydro-[1,2,4]triazolo[4,3-a]pyrazin-7(8H)-yl)(4-(thiophen-2-yl)phenyl)methanone] | < 5.30 | –
4 | CC1(C)CCN(c2nc(-c3nnc4n3CCN(C(=O)c3ccc(F)cc3)C4)cs2)CC1 [Compound 276, (3-(2-(4,4-dimethylpiperidin-1-yl)thiazol-4-yl)-5,6-dihydro-[1,2,4]triazolo[4,3-a]pyrazin-7(8H)-yl)(4-fluorophenyl)methanone] | < 5.30 | –
5 | COCC1CCCCN1c1nc(-c2nnc3n2CCN(C(=O)c2ccc(F)cc2)C3)cs1 (stereo not shown) [Compound 277, (4-fluorophenyl)(3-(2-(2-(methoxymethyl)piperidin-1-yl)thiazol-4-yl)-5,6-dihydro-[1,2,4]triazolo[4,3-a]pyrazin-7(8H)-yl)methanone] | < 5.30 | –
6 | Cc1cccc(-c2nnc3n2CCN(C(=O)c2ccc(F)cc2)C3C)n1 (stereo not shown) [Compound 278, (4-fluorophenyl)(8-methyl-3-(6-methylpyridin-2-yl)-5,6-dihydro-[1,2,4]triazolo[4,3-a]pyrazin-7(8H)-yl)methanone] | > 6.30 | –
7 | COCC1CCCCN1c1nc(-c2nnc3n2CCN(C(=O)c2ccc(-c4cccs4)cc2)C3)cs1 (stereo not shown) [Compound 279, (3-(2-(2-(methoxymethyl)piperidin-1-yl)thiazol-4-yl)-5,6-dihydro-[1,2,4]triazolo[4,3-a]pyrazin-7(8H)-yl)(4-(thiophen-2-yl)phenyl)methanone] | > 6.30 | –
8 | CC(C)(C)OC(=O)NCCOc1ccccc1-c1nc(-c2nnc3n2CCN(C(=O)c2ccc(-c4cccs4)cc2)C3)cs1 [Compound 280, tert-butyl(2-(2-(4-(7-(4-(thiophen-2-yl)benzoyl)-5,6,7,8-tetrahydro-[1,2,4]triazolo[4,3-a]pyrazin-3-yl)thiazol-2-yl)phenoxy)ethyl)carbamate] | > 6.30 | –
9 | O=C(c1ccc(-c2cccs2)cc1)N1CCn2c(nnc2-c2csc(-c3ccccc3OCCO)n2)C1 [Compound 281, (3-(2-(2-(2-hydroxyethoxy)phenyl)thiazol-4-yl)-5,6-dihydro-[1,2,4]triazolo[4,3-a]pyrazin-7(8H)-yl)(4-(thiophen-2-yl)phenyl)methanone] | > 6.30 | –
10 | NCCOc1ccccc1-c1nc(-c2nnc3n2CCN(C(=O)c2ccc(-c4cccs4)cc2)C3)cs1 [Compound 282, (3-(2-(2-(2-aminoethoxy)phenyl)thiazol-4-yl)-5,6-dihydro-[1,2,4]triazolo[4,3-a]pyrazin-7(8H)-yl)(4-(thiophen-2-yl)phenyl)methanone] | 6.00 to 6.30 | –
11 | CS(=O)(=O)Nc1ccc(-c2nc(-c3nnc4n3CCN(C(=O)c3ccc(-c5cccs5)cc3)C4)cs2)cc1 [Compound 283, N-(4-(4-(7-(4-(thiophen-2-yl)benzoyl)-5,6,7,8-tetrahydro-[1,2,4]triazolo[4,3-a]pyrazin-3-yl)thiazol-2-yl)phenyl)methanesulfonamide] | 6.00 to 6.30 | –
12 | O=C(c1ccc(-c2cccs2)cc1)N1CCn2c(nnc2-c2cc(-c3ccccc3)nn2CCO)C1 [Compound 284, (3-(1-(2-hydroxyethyl)-3-phenyl-1H-pyrazol-5-yl)-5,6-dihydro-[1,2,4]triazolo[4,3-a]pyrazin-7(8H)-yl)(4-(thiophen-2-yl)phenyl)methanone] | > 6.30 | –
13 | O=C(c1ccc(-c2cccs2)cc1)N1CCn2c(nnc2-c2cc(-c3ccccc3)n(CCO)n2)C1 [Compound 285, (3-(1-(2-hydroxyethyl)-5-phenyl-1H-pyrazol-3-yl)-5,6-dihydro-[1,2,4]triazolo[4,3-a]pyrazin-7(8H)-yl)(4-(thiophen-2-yl)phenyl)methanone] | > 6.30 | –
14 | Cc1cccc(-c2nnc3n2CCN(C(=O)c2ccc(-c4ccccc4)cc2)C3C)n1 (stereo not shown) [Compound 286, [1,1′-biphenyl]-4-yl(8-methyl-3-(6-methylpyridin-2-yl)-5,6-dihydro-[1,2,4]triazolo[4,3-a]pyrazin-7(8H)-yl)methanone] | > 6.30 | –
15 | Cc1cccc(-c2nnc3n2CCN(C(=O)c2ccc(-c4cccs4)cc2)C3C)n1 (stereo not shown) [Compound 287, (8-methyl-3-(6-methylpyridin-2-yl)-5,6-dihydro-[1,2,4]triazolo[4,3-a]pyrazin-7(8H)-yl)(4-(thiophen-2-yl)phenyl)methanone] | > 6.30 | –

Continued, in another order:

Row | pKi [2] | Compound | effect on LH serum levels [1]
16 | > 6.30 | C[C@@H]1c2nnc(-c3csc(-c4ccc(F)cc4)n3)n2CCN1C(=O)c1ccc(F)cc1 [Compound 71, (R)-(4-fluorophenyl)(3-(2-(4-fluorophenyl)thiazol-4-yl)-8-methyl-5,6-dihydro-[1,2,4]triazolo[4,3-a]pyrazin-7(8H)-yl)methanone] | significantly suppressed GnRH-mediated elevation of LH
17 | > 6.30 | CC1c2nnc(-c3coc(-c4ccccc4)n3)n2CCN1C(=O)c1ccc(-c2cccs2)cc1 (stereo not shown) [Compound 114, (8-methyl-3-(2-phenyloxazol-4-yl)-5,6-dihydro-[1,2,4]triazolo[4,3-a]pyrazin-7(8H)-yl)(4-(thiophen-2-yl)phenyl)methanone] | significantly suppressed GnRH-mediated elevation of LH
18 | > 6.30 | C[C@@H]1c2nnc(-c3ccc4ccccc4n3)n2CCN1C(=O)c1ccc(-c2cccs2)cc1 [Compound 144, (R)-(8-methyl-3-(quinolin-2-yl)-5,6-dihydro-[1,2,4]triazolo[4,3-a]pyrazin-7(8H)-yl)(4-(thiophen-2-yl)phenyl)methanone] | significantly suppressed GnRH-mediated elevation of LH
19 | > 6.30 | O=C(c1ccc(-c2cccs2)cc1)N1CCn2c(nnc2-c2cc(-c3ccccc3)n[nH]2)C1 [Compound 267, (3-(3-phenyl-1H-pyrazol-5-yl)-5,6-dihydro-[1,2,4]triazolo[4,3-a]pyrazin-7(8H)-yl)(4-(thiophen-2-yl)phenyl)methanone] | –
20 | > 6.30 | Cc1ccsc1-c1ccc(C(=O)N2CCn3c(-c4csc(-c5ccc(F)cc5)n4)nnc3C2C)cc1 (stereo not shown) [Compound 268, (3-(2-(4-fluorophenyl)thiazol-4-yl)-8-methyl-5,6-dihydro-[1,2,4]triazolo[4,3-a]pyrazin-7(8H)-yl)(4-(3-methylthiophen-2-yl)phenyl)methanone] | –
21 | > 6.30 | O=C(c1ccc(F)cc1)N1CCn2c(nnc2-c2csc(-c3ccccc3O)n2)C1 [Compound 271, (4-fluorophenyl)(3-(2-(2-hydroxyphenyl)thiazol-4-yl)-5,6-dihydro-[1,2,4]triazolo[4,3-a]pyrazin-7(8H)-yl)methanone] | –
22 | > 6.30 | CC1CN(c2nc(-c3nnc4n3CCN(C(=O)c3ccc(-c5cccs5)cc3)C4)cs2)CCO1 (stereo not shown) [Compound 273, (3-(2-(2-methylmorpholino)thiazol-4-yl)-5,6-dihydro-[1,2,4]triazolo[4,3-a]pyrazin-7(8H)-yl)(4-(thiophen-2-yl)phenyl)methanone] | –
